According to US6355799B1, “Substituted benzene compounds, process for their preparation, and herbicidal and defoliant compositions containing them” (ISK Americas Incorporated, priority 1997, dated 2002):

Assays:
Assay type in all cases: in vivo
[1] = tested on: upland rice (Oryza sp., var. Tebonnet, RICE); test: Post-emerge test, crop safety; settings: for Post-emerge Herbicidal Activity RICE (crop damage): phytotoxicity rating 0-100 (0 no damage, 100 complete death), 14 days after application; for Post-emerge Herbicidal Activity RICE: crop damage rating 0-100 at 14 days after application
Outline: (§1)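 Compounds in acetone were track-sprayed at 187 l/ha, 15–1000 g ai/ha, onto sandy loam pots. Pre-emerge seeds were sown one day before spraying, with surface watering afterwards. Post-emerge plants were at the 2–3 leaf stage and sprayed with 0.25% v/v non-ionic surfactant. Injury was rated 0–100 at 14 days.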

[2] = tested on: field corn (Zea mays L., var. Dekalb 535, CORN); test: Post-emerge test, crop safety; settings: for Post-emerge Herbicidal Activity CORN (crop damage): phytotoxicity rating 0-100 (0 no damage, 100 complete death), 14 days after application; for Post-emerge Herbicidal Activity CORN: crop damage rating 0-100 at 14 days after application
Outline: as §1

[3] = tested on: ivyleaf morningglory (Ipomoea hederacea, IPOHE); test: Pre-emerge test, greenhouse herbicide activity screening; settings: pre-emerge; for Pre-emerge Herbicidal Activity IPOHE (phytotoxicity rating, scale 0-100): rated 14 days after application, 0 = no damage, 100 = complete death; for Pre-emerge Herbicidal Activity IPOHE: phytotoxicity rating 0-100 at 14 days after application
Outline: as §1

[4] = tested on: sicklepod (Cassia obtusifolia, CASOB); test: as above; settings: pre-emerge; for Pre-emerge Herbicidal Activity CASOB (phytotoxicity rating, scale 0-100): rated 14 days after application, 0 = no damage, 100 = complete death; for Pre-emerge Herbicidal Activity CASOB: phytotoxicity rating 0-100 at 14 days after application
Outline: as §1

[5] = tested on: large crabgrass (Digitaria sanguinalis, DIGSA); test: as above; settings: pre-emerge; for Pre-emerge Herbicidal Activity DIGSA (phytotoxicity rating, scale 0-100): rated 14 days after application, 0 = no damage, 100 = complete death; for Pre-emerge Herbicidal Activity DIGSA: phytotoxicity rating 0-100 at 14 days after application
Outline: as §1

[6] = tested on: barnyardgrass (Echinochloa crus-galli, ECHCG); test: as above; settings: pre-emerge; for Pre-emerge Herbicidal Activity ECHCG (phytotoxicity rating, scale 0-100): rated 14 days after application, 0 = no damage, 100 = complete death; for Pre-emerge Herbicidal Activity ECHCG: phytotoxicity rating 0-100 at 14 days after application
Outline: as §1

[7] = tested on: velvetleaf (Abutilon theophrasti, ABUTH); test: as above; settings: pre-emerge; for Pre-emerge Herbicidal Activity ABUTH (phytotoxicity rating, scale 0-100): rated 14 days after application, 0 = no damage, 100 = complete death; for Pre-emerge Herbicidal Activity ABUTH: phytotoxicity rating 0-100 at 14 days after application
Outline: as §1

[8] = tested on: lambsquarters (Chenopodium album, CHEAL); test: as above; settings: pre-emerge; for Pre-emerge Herbicidal Activity CHEAL (phytotoxicity rating, scale 0-100): rated 14 days after application, 0 = no damage, 100 = complete death; for Pre-emerge Herbicidal Activity CHEAL: phytotoxicity rating 0-100 at 14 days after application
Outline: as §1

[9] = tested on: johnsongrass (Sorghum halepense, SORHA); test: as above; settings: pre-emerge; for Pre-emerge Herbicidal Activity SORHA (phytotoxicity rating, scale 0-100): rated 14 days after application, 0 = no damage, 100 = complete death; for Pre-emerge Herbicidal Activity SORHA: phytotoxicity rating 0-100 at 14 days after application
Outline: as §1

[10] = tested on: green foxtail (Setaria viridis, SETVI); test: as above; settings: pre-emerge; for Pre-emerge Herbicidal Activity SETVI (phytotoxicity rating, scale 0-100): rated 14 days after application, 0 = no damage, 100 = complete death; for Pre-emerge Herbicidal Activity SETVI: phytotoxicity rating 0-100 at 14 days after application
Outline: as §1

[11] = tested on: redroot pigweed (Amaranthus retroflexus, AMARE); test: as above; settings: pre-emerge; for Pre-emerge Herbicidal Activity AMARE (phytotoxicity rating, scale 0-100): rated 14 days after application, 0 = no damage, 100 = complete death; for Pre-emerge Herbicidal Activity AMARE: phytotoxicity rating 0-100 at 14 days after application
Outline: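 Herbicidal damage is scored 0 (none) to 100 (complete plant death) two weeks after a simulated field spray. Rates span 15–1000 g ai/ha, delivered in acetone at 187 l/ha. For post-emergence treatments, plants have 2–3 leaves and the spray carries 0.25% v/v non-ionic surfactant.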

[12] = tested on: upland rice (Oryza sp., var. Tebonnet, RICE); test: Pre-emerge test, crop safety; settings: pre-emerge; for Pre-emerge crop damage RICE (phytotoxicity rating, scale 0-100): rated 14 days after application, 0 = no damage, 100 = complete death; for Pre-emerge Herbicidal Activity RICE: crop damage, phytotoxicity rating 0-100 at 14 days after application
Outline: (§2)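 Compounds in acetone were track-sprayed at 15-1000 g ai/ha (187 l/ha) on sandy loam pots: pre-emerge one day after seeding, post-emerge at 2-3 leaf stage with 0.25% v/v non-ionic surfactant. Phytotoxicity was rated 14 days later on a 0 (no damage) to 100 (complete death) scale.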

[13] = tested on: field corn (Zea mays L., var. Dekalb 535, CORN); test: Pre-emerge test, crop safety; settings: pre-emerge; for Pre-emerge crop damage CORN (phytotoxicity rating, scale 0-100): rated 14 days after application, 0 = no damage, 100 = complete death; for Pre-emerge Herbicidal Activity CORN: crop damage, phytotoxicity rating 0-100 at 14 days after application
Outline: as §2

[14] = tested on: ivyleaf morningglory (Ipomoea hederacea, IPOHE); test: Post-emerge test, greenhouse herbicide activity screening
Outline: (§3)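 Plants grown in 10 cm pots of sandy loam mix received acetone-dissolved compounds through a moving flat-fan nozzle. Doses ranged from 15 to 1000 g ai/ha. Pre-emerge pots were seeded one day earlier, post-emerge pots 8–21 days earlier. Fourteen days on, each pot was graded 0–100 for damage.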

[15] = tested on: sicklepod (Cassia obtusifolia, CASOB); test: as above
Outline: as §3

[16] = tested on: large crabgrass (Digitaria sanguinalis, DIGSA); test: as above
Outline: as §3

[17] = tested on: redroot pigweed (Amaranthus retroflexus, AMARE); test: as above
Outline: as §3

[18] = tested on: barnyardgrass (Echinochloa crus-galli, ECHCG); test: as above
Outline: as §3

[19] = tested on: velvetleaf (Abutilon theophrasti, ABUTH); test: as above
Outline: as §3

[20] = tested on: lambsquarters (Chenopodium album, CHEAL); test: as above
Outline: as §3

[21] = tested on: johnsongrass (Sorghum halepense, SORHA); test: as above
Outline: as §3

[22] = tested on: green foxtail (Setaria viridis, SETVI); test: as above
Outline: as §3

[23] = 63 g ai/ha, phytotoxicity rating 0-100 (0 no damage, 100 complete death), 14 days after application
[24] = 250 g ai/ha, phytotoxicity rating 0-100 (0 no damage, 100 complete death), 14 days after application
[25] = post-emerge, 63 g ai/ha, phytotoxicity rating 0-100 at 14 days after application
[26] = post-emerge, 250 g ai/ha, phytotoxicity rating 0-100 at 14 days after application

C=C(C)C(=O)N(C(=O)C(=C)C)c1c(OC)c(Cl)cc(F)c1-n1c(=O)cc(C(F)(F)F)n(C)c1=O [2-6]
Post-emerge Herbicidal Activity RICE (crop damage) ([1]; 63 g ai/ha): 0
Post-emerge Herbicidal Activity RICE (crop damage) ([1]; 250 g ai/ha): 0
Post-emerge Herbicidal Activity CORN (crop damage) ([2]; 63 g ai/ha): 0
Post-emerge Herbicidal Activity CORN (crop damage) ([2]; 250 g ai/ha): 5
Pre-emerge Herbicidal Activity IPOHE (phytotoxicity rating, scale 0-100) ([3]; 63 g ai/ha): 0
Pre-emerge Herbicidal Activity IPOHE (phytotoxicity rating, scale 0-100) ([3]; 250 g ai/ha): 0
Pre-emerge Herbicidal Activity CASOB (phytotoxicity rating, scale 0-100) ([4]; 63 g ai/ha): 0
Pre-emerge Herbicidal Activity CASOB (phytotoxicity rating, scale 0-100) ([4]; 250 g ai/ha): 0
Pre-emerge Herbicidal Activity DIGSA (phytotoxicity rating, scale 0-100) ([5]; 63 g ai/ha): 0
Pre-emerge Herbicidal Activity DIGSA (phytotoxicity rating, scale 0-100) ([5]; 250 g ai/ha): 10
Pre-emerge Herbicidal Activity ECHCG (phytotoxicity rating, scale 0-100) ([6]; 63 g ai/ha): 0
Pre-emerge Herbicidal Activity ECHCG (phytotoxicity rating, scale 0-100) ([6]; 250 g ai/ha): 0
Pre-emerge Herbicidal Activity ABUTH (phytotoxicity rating, scale 0-100) ([7]; 63 g ai/ha): 0
Pre-emerge Herbicidal Activity ABUTH (phytotoxicity rating, scale 0-100) ([7]; 250 g ai/ha): 0
Pre-emerge Herbicidal Activity CHEAL (phytotoxicity rating, scale 0-100) ([8]; 63 g ai/ha): 0
Pre-emerge Herbicidal Activity CHEAL (phytotoxicity rating, scale 0-100) ([8]; 250 g ai/ha): 0
Pre-emerge Herbicidal Activity SORHA (phytotoxicity rating, scale 0-100) ([9]; 63 g ai/ha): 0
Pre-emerge Herbicidal Activity SORHA (phytotoxicity rating, scale 0-100) ([9]; 250 g ai/ha): 20
Pre-emerge Herbicidal Activity SETVI (phytotoxicity rating, scale 0-100) ([10]; 63 g ai/ha): 0
Pre-emerge Herbicidal Activity SETVI (phytotoxicity rating, scale 0-100) ([10]; 250 g ai/ha): 80
Pre-emerge Herbicidal Activity AMARE (phytotoxicity rating, scale 0-100) ([11]; 63 g ai/ha): 0
Pre-emerge Herbicidal Activity AMARE (phytotoxicity rating, scale 0-100) ([11]; 250 g ai/ha): 50
Pre-emerge crop damage RICE (phytotoxicity rating, scale 0-100) ([12]; 63 g ai/ha): 0
Pre-emerge crop damage RICE (phytotoxicity rating, scale 0-100) ([12]; 250 g ai/ha): 0
Pre-emerge crop damage CORN (phytotoxicity rating, scale 0-100) ([13]; 63 g ai/ha): 0
Pre-emerge crop damage CORN (phytotoxicity rating, scale 0-100) ([13]; 250 g ai/ha): 0
Post-emerge Herbicidal Activity IPOHE [14, 23]: 0
Post-emerge Herbicidal Activity IPOHE [14, 24]: 30
Post-emerge Herbicidal Activity CASOB [15, 23]: 0
Post-emerge Herbicidal Activity CASOB [15, 24]: 0
Post-emerge Herbicidal Activity DIGSA [16, 23]: 0
Post-emerge Herbicidal Activity DIGSA [16, 24]: 0
Post-emerge Herbicidal Activity AMARE [17, 23]: 0
Post-emerge Herbicidal Activity AMARE [17, 24]: 10
Post-emerge Herbicidal Activity ECHCG [18, 23]: 0
Post-emerge Herbicidal Activity ECHCG [18, 24]: 0
Post-emerge Herbicidal Activity ABUTH [19, 23]: 0
Post-emerge Herbicidal Activity ABUTH [19, 24]: 70
Post-emerge Herbicidal Activity CHEAL [20, 23]: 0
Post-emerge Herbicidal Activity CHEAL [20, 24]: 30
Post-emerge Herbicidal Activity SORHA [21, 23]: 0
Post-emerge Herbicidal Activity SORHA [21, 24]: 0
Post-emerge Herbicidal Activity SETVI [22, 23]: 0
Post-emerge Herbicidal Activity SETVI [22, 24]: 0

COc1cccc(OC)c1OC(=O)Nc1c(C)c(Cl)cc(F)c1-n1c(=O)cc(C(F)(F)F)n(C)c1=O [4-59]
Post-emerge Herbicidal Activity RICE ([1]; 63 g ai/ha): 50
Post-emerge Herbicidal Activity RICE ([1]; 250 g ai/ha): 60
Post-emerge Herbicidal Activity CORN ([2]; 63 g ai/ha): 5
Post-emerge Herbicidal Activity CORN ([2]; 250 g ai/ha): 25
Pre-emerge Herbicidal Activity IPOHE ([3]; rate 63 g ai/ha): 95
Pre-emerge Herbicidal Activity IPOHE ([3]; rate 250 g ai/ha): 100
Pre-emerge Herbicidal Activity CASOB ([4]; rate 63 g ai/ha): 20
Pre-emerge Herbicidal Activity CASOB ([4]; rate 250 g ai/ha): 90
Pre-emerge Herbicidal Activity DIGSA ([5]; rate 63 g ai/ha): 40
Pre-emerge Herbicidal Activity DIGSA ([5]; rate 250 g ai/ha): 100
Pre-emerge Herbicidal Activity ECHCG ([6]; rate 63 g ai/ha): 10
Pre-emerge Herbicidal Activity ECHCG ([6]; rate 250 g ai/ha): 90
Pre-emerge Herbicidal Activity ABUTH ([7]; rate 63 g ai/ha): 100
Pre-emerge Herbicidal Activity ABUTH ([7]; rate 250 g ai/ha): 100
Pre-emerge Herbicidal Activity CHEAL ([8]; rate 63 g ai/ha): 100
Pre-emerge Herbicidal Activity CHEAL ([8]; rate 250 g ai/ha): 100
Pre-emerge Herbicidal Activity SORHA ([9]; rate 63 g ai/ha): 40
Pre-emerge Herbicidal Activity SORHA ([9]; rate 250 g ai/ha): 95
Pre-emerge Herbicidal Activity SETVI ([10]; rate 63 g ai/ha): 30
Pre-emerge Herbicidal Activity SETVI ([10]; rate 250 g ai/ha): 90
Pre-emerge Herbicidal Activity AMARE ([11]; rate 63 g ai/ha): 100
Pre-emerge Herbicidal Activity AMARE ([11]; rate 250 g ai/ha): 100
Pre-emerge Herbicidal Activity RICE ([12]; rate 63 g ai/ha): 0
Pre-emerge Herbicidal Activity RICE ([12]; rate 250 g ai/ha): 70
Pre-emerge Herbicidal Activity CORN ([13]; rate 63 g ai/ha): 5
Pre-emerge Herbicidal Activity CORN ([13]; rate 250 g ai/ha): 80
Post-emerge Herbicidal Activity IPOHE [14, 25]: 100
Post-emerge Herbicidal Activity IPOHE [14, 26]: 100
Post-emerge Herbicidal Activity CASOB [15, 25]: 30
Post-emerge Herbicidal Activity CASOB [15, 26]: 60
Post-emerge Herbicidal Activity DIGSA [16, 25]: 0
Post-emerge Herbicidal Activity DIGSA [16, 26]: 20
Post-emerge Herbicidal Activity AMARE [17, 25]: 90
Post-emerge Herbicidal Activity AMARE [17, 26]: 100
Post-emerge Herbicidal Activity ECHCG [18, 25]: 0
Post-emerge Herbicidal Activity ECHCG [18, 26]: 20
Post-emerge Herbicidal Activity ABUTH [19, 25]: 100
Post-emerge Herbicidal Activity ABUTH [19, 26]: 100
Post-emerge Herbicidal Activity CHEAL [20, 25]: 100
Post-emerge Herbicidal Activity CHEAL [20, 26]: 100
Post-emerge Herbicidal Activity SORHA [21, 25]: 0
Post-emerge Herbicidal Activity SORHA [21, 26]: 30
Post-emerge Herbicidal Activity SETVI [22, 25]: 0
Post-emerge Herbicidal Activity SETVI [22, 26]: 30
